{"source": "patent US20200009173A1", "about": "“TRIAZOLE-CONTAINING MACROLIDES AND OPHTHALMIC USES THEREFOR” (Tetard, Inc., priority 2017, published 2020)", "key": {"Legionella pneumophila": {"system": "Legionella pneumophila", "test": "microbe, parasite or virus in culture", "type": "cell-based"}, "log P": {"test": "log P", "type": "physicochemical", "description": "Formulated compounds are tested for their transverse diffusive ability through the membrane. Diffusion through biological membranes is directly correlated to the formulation excipients, its physical state (suspension, solution, emulsion, etc.) and its log P. […] For compounds with log P>3, the compound typically permeates the lipid epithelium of the cornea, only to be hindered by the hydrophilic stroma. For an indication like blepharitis, high corneal concentrations achieved with repeat dosing will result in a drug depot, acting like a sustained release system."}, "Mycoplasma hominis": {"system": "Mycoplasma hominis", "test": "MIC, Mycoplasma hominis", "type": "cell-based", "conditions": "N = 13"}, "Streptococcus pneumoniae": {"system": "Streptococcus pneumoniae", "test": "MIC, Streptococcus pneumoniae (150 strains)", "type": "cell-based"}, "CXCL8": {"system": "CXCL8", "test": "CXCL8 (IL-8) production in LPS-stimulated PMA-differentiated U937 cells (ELISA)", "type": "cell-based, human", "description": "EXAMPLE. […] Cells. The human monocytic cell line U937 was obtained from the American Type Culture Collection (ATCC, Rockville, Md.). PBMCs from COPD patients were obtained from Brompton hospital and separated by AccuSPIN (Sigma-Aldrich). […] U937 cells were differentiated into adherent macrophage-like morphology by exposure to PMA (50 ng/ml) for 48 h in complete growth medium. Cell viability was assessed microscopically by trypan blue staining. Cell toxicity was determined by MTT assay as needed. This study was approved by the ethics committee of the Royal Brompton Hospitals, and all subjects gave written informed consent. Cytokine ELISA. TNFα and IL-8 concentrations in the supernatant of cell cultures were determined by sandwich ELISA according to the manufacturer's instructions (R&D Systems Europe, Abingdon, UK). Statistical analysis. The results were expressed as the mean±SEM. Comparisons of data in two groups were performed using the Student's t test or the Wilcoxon signed rank test. Multiple comparisons were made by one-way ANOVA with post hoc test (Dunnett's) as appropriate. The difference was considered significant at p<0.05. […] Anti-inflammatory effects of solithromycin in U937 cells."}, "Haemophilus influenzae": {"system": "Haemophilus influenzae", "test": "MIC, Haemophilus influenzae (100 strains)", "type": "cell-based"}, "[1]": {"system": "phagocytized L. pneumophila", "type": "cell-based"}, "CA-MRSA": {"system": "CA-MRSA", "test": "MIC, CA-MRSA", "type": "cell-based, Staphylococcus aureus", "conditions": "N = 30"}, "Streptococcus mitis": {"system": "Streptococcus mitis", "test": "MIC, Streptococcus mitis", "type": "cell-based", "conditions": "N = 73"}, "Listeria monocytogenes": {"system": "Listeria monocytogenes", "test": "MIC, Listeria monocytogenes", "type": "cell-based", "conditions": "N = 10"}, "Peptostreptococcus spp.": {"system": "Peptostreptococcus spp.", "test": "MIC, Peptostreptococcus spp.", "type": "cell-based", "conditions": "N = 10"}, "S. epidermidis": {"system": "S. epidermidis", "test": "MICs of solithromycin and comparator drugs, S. epidermidis (30 species)", "type": "cell-based", "excerpt": "EXAMPLE. The formulations described herein show overall higher potency against ocular pathogens than commercial standards.\nMICs (μg/ml) of Solithromycin and Comparator Drugs against Bacterial Species"}, "MMP9": {"system": "MMP9", "test": "MMP9 activity in PMA-stimulated U937 cells (gelatin zymography)", "type": "cell-based, human", "conditions": "Homo sapiens, U-937", "description": "EXAMPLE. […] Cells. The human monocytic cell line U937 was obtained from the American Type Culture Collection (ATCC, Rockville, Md.). PBMCs from COPD patients were obtained from Brompton hospital and separated by AccuSPIN (Sigma-Aldrich). […] U937 cells were differentiated into adherent macrophage-like morphology by exposure to PMA (50 ng/ml) for 48 h in complete growth medium. Cell viability was assessed microscopically by trypan blue staining. Cell toxicity was determined by MTT assay as needed. This study was approved by the ethics committee of the Royal Brompton Hospitals, and all subjects gave written informed consent. Zymography. MMP9 enzyme activity was measured by gelatin zymography. […] After electrophoresis, gels were incubated and rinsed with Novex® zymogram renaturing buffer (Invitrogen) for 30 min at room temperature. The gels were then rinsed in Novex® zymogram developing buffer (Invitrogen) for 30 min at room temperature prior to overnight incubation in the developing buffer at 37° C. After incubation, the gels were stained using a Colloidal Blue Staining Kit (Invitrogen) to visualize the zymogen bands. Statistical analysis. The results were expressed as the mean±SEM. Comparisons of data in two groups were performed using the Student's t test or the Wilcoxon signed rank test. Multiple comparisons were made by one-way ANOVA with post hoc test (Dunnett's) as appropriate. The difference was considered significant at p<0.05."}}, "note": "Where two headings read alike, the source gives them in different places."}
{"compound": "CC[C@H]1OC(=O)[C@@](C)(F)C(=O)[C@H](C)[C@@H](O[C@@H]2O[C@H](C)C[C@H](N(C)C)[C@H]2O)[C@](C)(OC)C[C@@H](C)C(=O)[C@H](C)[C@H]2N(CCCCn3cc(-c4cccc(N)c4)nn3)C(=O)O[C@]12C", "note": "[CEM-101, solithromycin]", "values": [{"measurement": "MIC50", "setting": "Legionella pneumophila; Legionella pneumophila", "result": "≤ 0.015", "unit": "µg/mL"}, {"measurement": "MIC90", "setting": "Legionella pneumophila; Legionella pneumophila", "result": "≤ 0.015", "unit": "µg/mL"}, {"measurement": "MIC90", "setting": "Legionella pneumophila; N = 30", "result": "≤0.015", "unit": "µg/mL"}, {"measurement": "MIC Range", "setting": "Legionella pneumophila; N = 30", "result": "≤0.015", "unit": "µg/mL"}, {"measurement": "logP", "setting": "log P", "result": 4.2}, {"measurement": "MIC50", "setting": "Mycoplasma hominis; Metamycoplasma hominis", "result": 0.004, "unit": "µg/mL"}, {"measurement": "MIC90", "setting": "Mycoplasma hominis; Metamycoplasma hominis", "result": 0.008, "unit": "µg/mL"}, {"measurement": "MIC Range", "setting": "Mycoplasma hominis", "result": "0.002 to 0.008", "unit": "µg/mL"}, {"measurement": "MIC90", "setting": "Streptococcus pneumoniae; N = 150", "result": 0.25, "unit": "µg/mL"}, {"measurement": "MIC Range", "setting": "Streptococcus pneumoniae; N = 150", "result": "≤0.008 to 0.5", "unit": "µg/mL"}, {"measurement": "MIC90", "setting": "Streptococcus pneumoniae; Streptococcus pneumoniae, 150 strains, read-out: MIC90", "result": 0.25, "unit": "µg/mL"}, {"measurement": "MIC50", "setting": "Streptococcus pneumoniae; Streptococcus pneumoniae, N = 150", "result": 0.015, "unit": "µg/mL"}, {"measurement": "IC50", "setting": "CXCL8; Homo sapiens, U-937, LPS, PMA-differentiated U937 cells, read-out: IC50 on CXCL8 release", "result": "78.2 ± 9.5", "unit": "µM"}, {"measurement": "effect on CXCL8 production", "setting": "CXCL8; at 100 μM", "result": "significantly inhibited"}, {"measurement": "MIC90", "setting": "Haemophilus influenzae; Haemophilus influenzae, 100 strains, read-out: MIC90", "result": 2, "unit": "µg/mL"}, {"measurement": "MIC50", "setting": "Haemophilus influenzae; Haemophilus influenzae, N = 100", "result": 1, "unit": "µg/mL"}, {"measurement": "MIC90", "setting": "Haemophilus influenzae; N = 100", "result": 2, "unit": "µg/mL"}, {"measurement": "MIC Range", "setting": "Haemophilus influenzae; N = 100", "result": "0.12 to 4", "unit": "µg/mL"}, {"measurement": "potency relative to azithromycin", "setting": "[1]", "result": 100, "unit": "fold"}, {"measurement": "MIC Range", "setting": "CA-MRSA", "result": "0.06 to 0.12", "unit": "µg/mL"}, {"measurement": "MIC50", "setting": "CA-MRSA; Staphylococcus aureus, MRSA", "result": 0.12, "unit": "µg/mL"}, {"measurement": "MIC90", "setting": "CA-MRSA; Staphylococcus aureus, MRSA", "result": 0.12, "unit": "µg/mL"}, {"measurement": "MIC Range", "setting": "Streptococcus mitis", "result": "≤0.03-0.25^ μg/mL"}, {"measurement": "MIC50", "setting": "Streptococcus mitis; Streptococcus mitis", "result": "≤ 0.03", "unit": "µg/mL"}, {"measurement": "MIC90", "setting": "Streptococcus mitis; Streptococcus mitis", "result": 0.06, "unit": "µg/mL"}, {"measurement": "MIC50", "setting": "Listeria monocytogenes; Listeria monocytogenes", "result": 0.03, "unit": "µg/mL"}, {"measurement": "MIC90", "setting": "Listeria monocytogenes; Listeria monocytogenes", "result": 0.03, "unit": "µg/mL"}, {"measurement": "MIC Range", "setting": "Listeria monocytogenes", "result": 0.03, "unit": "µg/mL"}, {"measurement": "MIC Range", "setting": "Peptostreptococcus spp.", "result": "≤0.03-0.25^ μg/mL"}, {"measurement": "MIC50", "setting": "Peptostreptococcus spp.; Peptostreptococcus", "result": 0.06, "unit": "µg/mL"}, {"measurement": "MIC90", "setting": "Peptostreptococcus spp.; Peptostreptococcus", "result": 0.25, "unit": "µg/mL"}, {"measurement": "I (intermediate susceptibility)", "setting": "S. epidermidis", "result": 3, "unit": "%"}, {"measurement": "NS (not susceptible)", "setting": "S. epidermidis", "result": 17, "unit": "%"}, {"measurement": "S (susceptible)", "setting": "S. epidermidis", "result": 80, "unit": "%"}, {"measurement": "MIC50", "setting": "S. epidermidis; Staphylococcus epidermidis", "result": 0.015, "unit": "µg/mL"}, {"measurement": "MIC90", "setting": "S. epidermidis; Staphylococcus epidermidis", "result": 32, "unit": "µg/mL"}, {"measurement": "IC50", "setting": "MMP9", "result": "14.9 ± 3.1", "unit": "µM"}]}
